According to patent US7166597B2, “Fused pyrazole derivatives being protein kinase inhibitors” (Glaxo Group Limited, priority 2000, dated 2007):
Like-named read-outs stand apart in the source and are kept apart here.

Key:
p38 kinase = target: T1, p38 kinase (Homo sapiens, UniProt Q16539); test: p38 Kinase Assay; assay type: biochemical
T1 construct: GST (N); made in house; host or cells: E. coli
Procedure: The peptide substrate used in the p38 assay was biotin-IPTSPITTTYFFFRRR-amide. The p38 and MEK6 proteins were purified to homogeneity from E. coli expression systems. The fusion proteins were tagged at the N-terminus with Glutathione-S-Transferase (GST). The maximum activation was achieved by incubating 20 uL of a reaction mixture of 30 nM MEK6 protein and 120 nM p38 protein in the presence of 1.5 uM peptide and 10 mM Mg (CH3CO2)2 in 100 mM HEPES7 pH 7.5, added to 15 uL of a mixture of 1.5 uM ATP with 0.08 uCi [g-^33P]ATP, with or without 15 uL of inhibitor in 6% DMSO. The controls were reactions in the presence (negative controls) or absence (positive controls) of 50 mM EDTA. Reactions were allowed to proceed for 60 min at room temperature and quenched with addition of 50 uL of 250 mM EDTA and mixed with 150 uL of Streptavidin SPA beads (Amersham) to 0.5 mg/reaction. The Dynatech Microfluor white U-bottom plates were sealed and the beads were allowed to settle overnight. The plates were counted in a Packard TopCount for 60 seconds. IC50 values were obtained by fitting raw data to % I=100*(1−(I−C2)/(C1−C2)), where I was […], C1 was positive control, and C2 was negative control.

[1] = target: T2, JNK3 kinase (Jnk-3alpha-2) (Homo sapiens, UniProt P53779); test: JNK3 Kinase Assay; assay type: biochemical
T2 construct: Jnk-3alpha-2 (as a truncated construct, residues 39 to 224) was expressed in E. coli as a GST fusion protein; Following purification the GST portion was removed by thrombin cleavage; fused on or other part: An N-terminal GST tag was used for expression and removed by thrombin cleavage before the assay
Procedure: JNK3 Kinase Assay Jnk-3alpha-2 (as a truncated construct, residues 39 to 224) was expressed in E. coli as a GST fusion protein. Following purification the GST portion was removed by thrombin cleavage. The enzyme was stored at −80° C. Substrate c-Jun was expressed as a GST fusion protein including a signal peptide (biotinylation site) in E. coli. Following purification the substrate was biotinylated on a specific lysine in the signal peptide using biotin ligase. Prior to assay Jnk-3 was pre-activated by incubation with MgATP. The enzyme (10 nM) was screened in 40 mM HEPES (pH 7.4), 150 mM NaCl, 20 mM glycerophosphate, 1 mM DTT, 0.2 mM vanadate, 200 nM biotin-c-Jun, 5 mM MgCl2 and 10 uM ATP. Inhibitors were added over a conc range of from 0 to 10 uM in DMSO (fc 3%). The reaction was stopped by the addition of 25 mM EDTA. Phospho-c-Jun was detected using homogeneous time resolved fluorescence (HTRF) with a Eu-labelled antiphosphoserine (Serine 73) and streptavidin APC.

[2] = Table 8, read-out: JNK3 kinase (inhibition of JNK3 kinase, IC50)
[3] = Table 8, compounds wherein Z is N, read-out: p38 kinase (inhibition of p38 kinase, IC50)
[4] = Table 9, p38 assays using Assay II, read-out: p38 IC50

T2 sequence (P53779 39-402 limits assumed): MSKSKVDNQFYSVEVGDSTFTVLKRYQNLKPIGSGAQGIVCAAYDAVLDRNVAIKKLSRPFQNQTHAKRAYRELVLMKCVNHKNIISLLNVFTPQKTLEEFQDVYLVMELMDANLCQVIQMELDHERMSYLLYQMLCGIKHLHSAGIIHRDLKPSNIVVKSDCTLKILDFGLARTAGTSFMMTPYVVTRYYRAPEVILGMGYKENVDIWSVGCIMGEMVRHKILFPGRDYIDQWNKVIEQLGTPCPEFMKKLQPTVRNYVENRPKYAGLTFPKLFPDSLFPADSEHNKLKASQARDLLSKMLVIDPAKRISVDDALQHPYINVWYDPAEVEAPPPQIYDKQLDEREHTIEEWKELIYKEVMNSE
T1 sequence (Q16539 whole entry): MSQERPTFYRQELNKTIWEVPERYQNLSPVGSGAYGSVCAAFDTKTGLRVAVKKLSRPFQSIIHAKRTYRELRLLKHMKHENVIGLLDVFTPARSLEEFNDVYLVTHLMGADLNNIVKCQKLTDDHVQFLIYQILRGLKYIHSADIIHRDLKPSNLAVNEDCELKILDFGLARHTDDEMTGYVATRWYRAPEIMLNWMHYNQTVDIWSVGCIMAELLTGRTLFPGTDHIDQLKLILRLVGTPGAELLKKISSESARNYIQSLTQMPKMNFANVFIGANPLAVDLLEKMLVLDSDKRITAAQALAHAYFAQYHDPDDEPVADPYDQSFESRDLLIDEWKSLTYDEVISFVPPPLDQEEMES

Compound | IC50 (p38 kinase; [3]) [µM] | IC50 ([1]; Table 9, read-out: JNK3 IC50) [µM] | IC50 (p38 kinase; [4]) [µM] | further results
OCc1ccn2nc(-c3ccc(F)cc3)c(-c3ccncc3)c2c1 [Example 6, 2-(4-Fluorophenyl)-5-hydroxymethyl-3-(4-pyridinyl)pyrazolo[1,5-a]pyridine] |  |  |  | IC50 (p38 kinase; Table 7, compounds wherein Z is CH, read-out: P38 kinase (inhibition of p38 kinase, IC50)): < 0.5 µM
Fc1ccc(-c2nn3ccccc3c2-c2ccnc(NC3CC3)n2)cc1 [Example 61, N-Cyclopropyl-4-[2-(4-fluorophenyl)pyrazolo[1,5-a]pyridin-3-yl]-2-pyrimidinamine] | < 0.5 |  |  | IC50 [1, 2]: < 0.5 µM
Nc1nccc(-c2c(-c3ccc(F)cc3)nn3cc(C(F)(F)F)ccc23)n1 [Example 65, 4-[2-(4-Fluorophenyl)-6-trifluoromethylpyrazolo[1,5-a]pyridin-3-yl]-2-pyrimidinamine] | < 0.5 |  |  | 
OCCCNc1nccc(-c2c(-c3ccc(F)cc3)nn3cc(C(F)(F)F)ccc23)n1 [Example 72, 3-(4-[2-(4-Fluorophenyl)-6-trifluoromethylpyrazolo[1,5-a]pyridin-3-yl]-2-pyrimidinylamino)-1-propanol] | < 0.5 |  |  | 
NC(=O)c1ccc2c(-c3ccnc(NCCCO)n3)c(-c3ccc(F)cc3)nn2c1 [Example 76, 2-(4-Fluorophenyl)-3-(4-(2-(3-hydroxypropyl)amino)pyrimidinyl)-6-pyrazolo-[1,5-a]pyridinylcarboxamide] | < 0.5 |  |  | 
CN1CCN(CCCNc2nccc(-c3c(-c4ccc(F)cc4)nn4cc(C(N)=O)ccc34)n2)CC1 [Example 79, 2-(4-Fluorophenyl)-3-(4-(2-(3-(4-methylpiperazino)propyl)amino)pyrimidinyl)-6-pyrazolo-[1,5-a]pyridinylcarboxamide] | < 0.5 |  |  | 
Fc1ccc(-c2nn3cc(C(F)(F)F)ccc3c2-c2ccnc(Oc3ccccc3)n2)cc1 [Example 84, 2-(4-Fluorophenyl)-3-(2-phenoxypyrimidin-4-yl)-6-(trifluoromethyl)pyrazolo[1,5-a]pyridine] | < 0.5 |  |  | IC50 [1, 2]: < 0.5 µM
Cc1ccc(C)c(Oc2nccc(-c3c(-c4ccc(F)cc4)nn4cc(C(F)(F)F)ccc34)n2)c1 [Example 86, 3-[2-(2,5-Dimethylphenoxy)pyrimidin-4-yl]-2-(4-fluorophenyl)-6-(trifluoromethyl)pyrazolo[1,5-a]pyridine] | < 0.5 |  |  | IC50 [1, 2]: < 0.5 µM
CN(C)CCCNc1nccc(-c2c(-c3ccc(F)cc3)nn3cc(C(F)(F)F)ccc23)n1 [Example 87, N-[3-(dimethylamino)propyl]-N-[4-{2-(4-fluorophenyl)-6-(trifluoromethyl)pyrazolo[1,5-a]pyridin-3-yl}pyrimidin-2-yl]amine] |  | 1 to 10 | 0.1 to 1 | 
CN(C)CCCNc1nccc(-c2c(-c3ccc(C(F)(F)F)cc3)nn3cc(C(F)(F)F)ccc23)n1 [Example 88, N-[3-(dimethylamino)propyl]-N-[4-{6-(trifluoromethyl)-2-[4-(trifluoromethyl)phenyl]pyrazolo[1,5-a]pyridin-3-yl}pyrimidin-2-yl]amine] |  | 1 to 10 | 1 to 10 | 
CN(C)CCCNc1nccc(-c2c(-c3ccc(F)c(Cl)c3)nn3cc(C(F)(F)F)ccc23)n1 [Example 89, N-[4-{2-[3-chloro-4-fluorophenyl]-6-(trifluoromethyl)pyrazolo-[1,5-a]pyridin-3-yl}pyrimidin-2-yl]-N-[3-(dimethylamino)propyl]amine] |  | 1 to 10 | 0.01 to 0.1 | 
CN(C)CCCNc1nccc(-c2c(-c3cccc(Cl)c3)nn3cc(C(F)(F)F)ccc23)n1 [Example 90, N-{4-[2-(3-chlorophenyl)-6-(trifluoromethyl)pyrazolo[1,5-a]pyridin-3-yl]pyrimidin-2-yl}-N-[3-(dimethylamino)propyl]amine] |  | 1 to 10 | 0.01 to 0.1 | 
CCN(CC)CCCCNc1nccc(-c2c(-c3ccc(F)c(Cl)c3)nn3cc(C(F)(F)F)ccc23)n1 [Example 93, N-{4-[2-(3-chloro-4-fluorophenyl)-6-(trifluoromethyl)pyrazolo-[1,5-a]pyridin-3-yl]pyrimidin-2-yl}-N-[4-(diethylamino)butyl]amine] |  | 0.1 to 1 | 0.01 to 0.1 | 
CCN(CC)CCCCNc1nccc(-c2c(-c3cccc(Cl)c3)nn3cc(C(F)(F)F)ccc23)n1 [Example 94, N-{4-[2-(3-chlorophenyl)-6-(trifluoromethyl)pyrazolo[1,5-a]pyridin-3-yl]pyrimidin-2-yl}-N-[4-(diethylamino)butyl]amine] |  | 0.1 to 1 | 0.01 to 0.1 | 
CCN(CC)CCNc1nccc(-c2c(-c3ccc(C(F)(F)F)cc3)nn3cc(C(F)(F)F)ccc23)n1 [Example 95, N-[2-(diethylamino)ethyl]-N-(4-{6-(trifluoromethyl)-2-[4-(trifluoromethyl)phenyl]pyrazolo[1,5-a]pyridin-3-yl}pyrimidin-2-yl)amine] |  |  | 1 to 10 | 

Further lines, with some results ahead:

IC50 (p38 kinase; [3]) [µM] | IC50 ([1]; Table 9, read-out: JNK3 IC50) [µM] | IC50 (p38 kinase; [4]) [µM] | Compound | further results
 |  | 0.1 to 1 | CCN(CC)CCNc1nccc(-c2c(-c3cccc(Cl)c3)nn3cc(C(F)(F)F)ccc23)n1 [Example 96, N-{4-[2-(3-chlorophenyl)-6-(trifluoromethyl)pyrazolo[1,5-a]pyridin-3-yl]pyrimidin-2-yl}-N-[2-(diethylamino)ethyl]amine] | 
 |  | 1 to 10 | CCCN(CCC)CCNc1nccc(-c2c(-c3ccc(C(F)(F)F)cc3)nn3cc(C(F)(F)F)ccc23)n1 [Example 97, N-[2-(dipropylamino)ethyl]-N-(4-{6-(trifluoromethyl)-2-[4-(trifluoromethyl)phenyl]pyrazolo[1,5-a]pyridin-3-yl}pyrimidin-2-yl)amine] | 
 | 1 to 10 | 0.1 to 1 | CCCN(CCC)CCNc1nccc(-c2c(-c3ccc(F)c(Cl)c3)nn3cc(C(F)(F)F)ccc23)n1 [Example 98, N-{4-[2-(3-chloro-4-fluorophenyl)-6-(trifluoromethyl)pyrazolo-[1,5-a]pyridin-3-yl]pyrimidin-2-yl}-N-[2-(dipropylamino)ethyl]amine] | 
 | 1 to 10 | 0.1 to 1 | CCCN(CCC)CCNc1nccc(-c2c(-c3cccc(Cl)c3)nn3cc(C(F)(F)F)ccc23)n1 [Example 99, N-{4-[2-(3-chlorophenyl)-6-(trifluoromethyl)pyrazolo[1,5-a]pyridin-3-yl]pyrimidin-2-yl}-N-[2-(dipropylamino)ethyl]amine] | 
 |  | 1 to 10 | FC(F)(F)c1ccc(-c2nn3cc(C(F)(F)F)ccc3c2-c2ccnc(NCCN3CCCC3)n2)cc1 [Example 103, N-(2-pyrrolidin-1-ylethyl)-N-(4-{6-(trifluoromethyl)-2-[4-(trifluoromethyl)phenyl]pyrazolo[1,5-a]pyridin-3-yl}pyrimidin-2-yl)amine] | 
 |  | 1 to 10 | FC(F)(F)c1ccc(-c2nn3cc(C(F)(F)F)ccc3c2-c2ccnc(NCCN3CCCCC3)n2)cc1 [Example 108, N-(2-piperidin-1-ylethyl)-N-(4-{6-(trifluoromethyl)-2-[4-(trifluoromethyl)phenyl]pyrazolo[1,5-a]pyridin-3-yl}pyrimidin-2-yl)amine] | 
 |  | 1 to 10 | FC(F)(F)c1ccc(-c2nn3cc(C(F)(F)F)ccc3c2-c2ccnc(NCCN3CCOCC3)n2)cc1 [Example 119, N-(2-morpholin-4-ylethyl)-N-(4-{6-(trifluoromethyl)-2-[4-(trifluoromethyl)phenyl]pyrazolo[1,5-a]pyridin-3-yl}pyrimidin-2-yl)amine] | 
 |  | 1 to 10 | FC(F)(F)c1ccc(-c2nn3cc(C(F)(F)F)ccc3c2-c2ccnc(NCCCN3CCOCC3)n2)cc1 [Example 121, N-(3-morpholin-4-ylpropyl)-N-(4-{6-(trifluoromethyl)-2-[4-(trifluoromethyl)phenyl]pyrazolo[1,5-a]pyridin-3-yl}pyrimidin-2-yl)amine] | 
